Measurements reported in PMC6576746, “Rational discovery of dual-indication multi-target PDE/Kinase inhibitor for precision anti-cancer therapy using structural systems pharmacology” (PLoS Computational Biology, 2019).

Columns and labels:
Assay in all cases: biochemical
Parameters in all cases: DiscoverX KinomeScan competition binding assay across human kinases; per cent of control at 10 and 100 uM
LTK = LTK (Homo sapiens, UniProt P29376); conditions: competition binding, % of control; read-out: Percent Control (100 uM Levosimendan)
Summary of the method: (§1)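 Binding is expressed as %control, normalised between positive and negative control signals. The compound (levosimendan) was tested at 10 μM and 100 μM in the DiscoverX KinomeScan competition binding format against human kinases.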

EGFR(L861Q) = EGFR(L861Q) (Homo sapiens, UniProt P00533, L861Q); conditions: competition binding, % of control; read-out: Percent Control (100 uM Levosimendan)
Summary of the method: as §1

MARK1 = MARK1 (Homo sapiens, UniProt Q9P0L2); conditions: competition binding, % of control; read-out: Percent Control (100 uM Levosimendan)
Summary of the method: as §1

MARK4 = MARK4 (Homo sapiens, UniProt Q96L34); conditions: competition binding, % of control; read-out: Percent Control (100 uM Levosimendan)
Summary of the method: as §1

CSF1R-autoinhibited = CSF1R-autoinhibited (Homo sapiens, UniProt P07333); conditions: competition binding, % of control; read-out: Percent Control (100 uM Levosimendan)
Sequence of CSF1R-autoinhibited (P07333 whole entry): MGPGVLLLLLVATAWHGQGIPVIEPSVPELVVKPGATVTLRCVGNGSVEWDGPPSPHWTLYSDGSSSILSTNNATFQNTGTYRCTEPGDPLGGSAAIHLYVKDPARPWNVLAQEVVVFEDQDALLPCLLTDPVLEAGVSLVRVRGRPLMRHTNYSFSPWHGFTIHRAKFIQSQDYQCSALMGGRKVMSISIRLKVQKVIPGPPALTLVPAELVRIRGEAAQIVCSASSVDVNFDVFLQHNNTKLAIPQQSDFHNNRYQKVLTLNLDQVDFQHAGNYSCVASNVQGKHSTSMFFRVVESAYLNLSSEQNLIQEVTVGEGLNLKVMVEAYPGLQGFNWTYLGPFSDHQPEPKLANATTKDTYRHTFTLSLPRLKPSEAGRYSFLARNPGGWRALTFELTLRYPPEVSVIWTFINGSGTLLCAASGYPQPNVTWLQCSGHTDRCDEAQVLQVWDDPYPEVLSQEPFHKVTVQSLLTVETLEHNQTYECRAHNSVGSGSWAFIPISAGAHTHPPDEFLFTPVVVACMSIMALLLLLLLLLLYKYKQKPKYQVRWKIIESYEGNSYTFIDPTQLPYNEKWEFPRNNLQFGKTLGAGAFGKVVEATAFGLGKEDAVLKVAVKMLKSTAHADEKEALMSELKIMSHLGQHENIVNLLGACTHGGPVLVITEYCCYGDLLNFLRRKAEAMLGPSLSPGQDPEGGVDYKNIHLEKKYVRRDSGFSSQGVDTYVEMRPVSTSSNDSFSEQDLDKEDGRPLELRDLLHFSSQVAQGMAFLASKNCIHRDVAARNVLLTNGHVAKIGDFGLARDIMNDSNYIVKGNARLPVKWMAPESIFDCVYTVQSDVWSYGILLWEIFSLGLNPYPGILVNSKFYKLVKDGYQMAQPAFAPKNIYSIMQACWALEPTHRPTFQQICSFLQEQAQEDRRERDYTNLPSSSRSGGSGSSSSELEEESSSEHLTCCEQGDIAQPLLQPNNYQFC
Summary of the method: as §1

ERBB4 = ERBB4 (Homo sapiens, UniProt Q15303); conditions: competition binding, % of control; read-out: Percent Control (100 uM Levosimendan)
Summary of the method: as §1

TAK1 = biological target: T1, TAK1 (Homo sapiens, UniProt O43318); conditions: competition binding, % of control; read-out: Percent Control (100 uM Levosimendan)
T1 construct: gene MAP3K7
Summary of the method: as §1

INSRR = INSRR (Homo sapiens, UniProt P14616); conditions: competition binding, % of control; read-out: Percent Control (100 uM Levosimendan)
Sequence of INSRR (P14616 whole entry): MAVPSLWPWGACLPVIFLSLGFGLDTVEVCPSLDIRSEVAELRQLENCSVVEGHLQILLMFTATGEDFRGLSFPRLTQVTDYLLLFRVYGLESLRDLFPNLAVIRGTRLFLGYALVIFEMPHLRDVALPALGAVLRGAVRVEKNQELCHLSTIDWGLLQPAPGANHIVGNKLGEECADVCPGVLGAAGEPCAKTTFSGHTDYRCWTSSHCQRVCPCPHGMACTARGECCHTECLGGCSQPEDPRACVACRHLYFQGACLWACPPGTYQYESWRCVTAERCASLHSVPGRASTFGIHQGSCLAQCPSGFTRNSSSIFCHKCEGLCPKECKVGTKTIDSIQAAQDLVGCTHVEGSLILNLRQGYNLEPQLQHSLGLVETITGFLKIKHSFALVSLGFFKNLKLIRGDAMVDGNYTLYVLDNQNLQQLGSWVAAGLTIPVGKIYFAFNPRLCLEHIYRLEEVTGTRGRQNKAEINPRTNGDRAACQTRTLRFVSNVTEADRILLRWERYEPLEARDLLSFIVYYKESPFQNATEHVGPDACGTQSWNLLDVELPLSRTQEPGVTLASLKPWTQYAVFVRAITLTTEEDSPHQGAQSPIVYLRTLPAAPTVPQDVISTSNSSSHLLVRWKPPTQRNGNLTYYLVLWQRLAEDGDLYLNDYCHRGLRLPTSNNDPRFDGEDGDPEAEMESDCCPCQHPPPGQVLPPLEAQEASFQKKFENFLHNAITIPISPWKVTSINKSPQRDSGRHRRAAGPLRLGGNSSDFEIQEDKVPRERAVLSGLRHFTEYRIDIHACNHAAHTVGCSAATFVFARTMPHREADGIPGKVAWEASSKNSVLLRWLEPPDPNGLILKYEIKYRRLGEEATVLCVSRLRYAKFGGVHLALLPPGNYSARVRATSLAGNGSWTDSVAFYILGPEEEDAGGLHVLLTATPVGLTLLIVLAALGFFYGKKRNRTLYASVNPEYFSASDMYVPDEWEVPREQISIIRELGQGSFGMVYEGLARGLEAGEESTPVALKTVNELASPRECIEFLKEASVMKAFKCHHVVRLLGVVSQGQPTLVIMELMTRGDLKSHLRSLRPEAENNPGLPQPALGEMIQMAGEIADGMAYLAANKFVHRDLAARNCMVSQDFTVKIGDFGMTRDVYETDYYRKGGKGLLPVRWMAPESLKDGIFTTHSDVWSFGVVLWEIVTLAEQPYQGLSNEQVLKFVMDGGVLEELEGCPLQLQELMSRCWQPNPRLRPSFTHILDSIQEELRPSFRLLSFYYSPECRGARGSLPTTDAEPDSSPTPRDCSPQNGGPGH
Summary of the method: as §1

PIM2 = PIM2 (Homo sapiens, UniProt Q9P1W9); conditions: competition binding, % of control
Sequence of PIM2 (Q9P1W9 whole entry): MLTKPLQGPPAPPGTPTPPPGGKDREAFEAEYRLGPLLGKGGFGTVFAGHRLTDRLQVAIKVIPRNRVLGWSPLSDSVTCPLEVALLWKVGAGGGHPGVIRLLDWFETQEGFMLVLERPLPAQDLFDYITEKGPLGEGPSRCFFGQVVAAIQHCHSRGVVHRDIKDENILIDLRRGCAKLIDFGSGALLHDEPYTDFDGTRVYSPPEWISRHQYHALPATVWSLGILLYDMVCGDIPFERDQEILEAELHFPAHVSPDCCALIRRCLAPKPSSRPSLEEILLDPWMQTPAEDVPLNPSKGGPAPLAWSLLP
Summary of the method: as §1

TNNI3K = TNNI3K (Homo sapiens, UniProt Q59H18); conditions: competition binding, % of control; read-out: Percent Control (100 uM Levosimendan)
Sequence of TNNI3K (Q59H18 whole entry): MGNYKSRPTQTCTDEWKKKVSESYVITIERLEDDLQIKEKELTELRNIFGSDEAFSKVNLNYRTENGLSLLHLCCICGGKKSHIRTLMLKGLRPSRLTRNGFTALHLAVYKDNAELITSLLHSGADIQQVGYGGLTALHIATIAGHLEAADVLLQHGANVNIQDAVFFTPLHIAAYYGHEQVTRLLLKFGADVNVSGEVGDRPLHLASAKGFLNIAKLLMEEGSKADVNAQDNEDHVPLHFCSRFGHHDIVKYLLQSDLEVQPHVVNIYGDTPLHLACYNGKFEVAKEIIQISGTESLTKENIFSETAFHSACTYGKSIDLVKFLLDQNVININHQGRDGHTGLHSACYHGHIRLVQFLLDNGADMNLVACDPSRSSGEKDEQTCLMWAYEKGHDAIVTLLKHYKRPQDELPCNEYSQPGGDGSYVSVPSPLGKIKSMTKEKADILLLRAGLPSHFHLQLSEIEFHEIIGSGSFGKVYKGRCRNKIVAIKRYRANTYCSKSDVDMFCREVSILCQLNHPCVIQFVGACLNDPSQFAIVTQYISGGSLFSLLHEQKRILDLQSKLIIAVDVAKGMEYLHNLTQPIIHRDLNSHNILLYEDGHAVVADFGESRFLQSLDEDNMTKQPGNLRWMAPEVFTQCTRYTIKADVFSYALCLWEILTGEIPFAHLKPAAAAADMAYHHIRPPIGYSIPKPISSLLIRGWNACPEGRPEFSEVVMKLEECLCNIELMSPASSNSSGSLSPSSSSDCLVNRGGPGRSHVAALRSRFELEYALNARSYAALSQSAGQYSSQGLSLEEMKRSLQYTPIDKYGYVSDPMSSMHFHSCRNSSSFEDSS
Summary of the method: as §1

TAOK1 = TAOK1 (Homo sapiens, UniProt Q7L7X3); conditions: competition binding, % of control; read-out: Percent Control (100 uM Levosimendan)
Sequence of TAOK1 (Q7L7X3 whole entry): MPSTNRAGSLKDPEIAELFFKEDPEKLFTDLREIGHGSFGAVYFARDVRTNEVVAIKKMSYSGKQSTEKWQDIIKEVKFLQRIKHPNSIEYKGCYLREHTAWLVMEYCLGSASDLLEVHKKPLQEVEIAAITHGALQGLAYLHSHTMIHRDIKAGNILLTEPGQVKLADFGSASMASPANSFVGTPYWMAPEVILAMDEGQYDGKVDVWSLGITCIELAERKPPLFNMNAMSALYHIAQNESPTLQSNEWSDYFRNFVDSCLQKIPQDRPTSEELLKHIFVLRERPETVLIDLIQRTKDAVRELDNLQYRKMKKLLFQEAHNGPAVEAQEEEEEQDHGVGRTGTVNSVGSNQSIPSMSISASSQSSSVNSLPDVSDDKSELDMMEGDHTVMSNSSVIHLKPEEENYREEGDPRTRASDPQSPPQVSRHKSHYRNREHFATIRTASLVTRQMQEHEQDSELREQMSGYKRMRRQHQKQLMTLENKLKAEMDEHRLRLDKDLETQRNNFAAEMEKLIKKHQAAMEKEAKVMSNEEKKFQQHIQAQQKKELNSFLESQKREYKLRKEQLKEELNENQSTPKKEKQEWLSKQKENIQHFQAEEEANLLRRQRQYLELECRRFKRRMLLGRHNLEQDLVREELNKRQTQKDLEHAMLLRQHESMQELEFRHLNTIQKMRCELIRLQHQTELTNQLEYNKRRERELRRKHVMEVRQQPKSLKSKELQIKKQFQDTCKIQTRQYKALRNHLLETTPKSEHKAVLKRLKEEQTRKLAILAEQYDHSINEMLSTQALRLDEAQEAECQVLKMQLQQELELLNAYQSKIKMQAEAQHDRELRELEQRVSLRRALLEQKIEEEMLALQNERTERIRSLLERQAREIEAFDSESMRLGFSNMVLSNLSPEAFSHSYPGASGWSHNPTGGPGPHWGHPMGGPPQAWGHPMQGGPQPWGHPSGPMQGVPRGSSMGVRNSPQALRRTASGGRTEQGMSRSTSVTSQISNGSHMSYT
Summary of the method: as §1

IKK-beta = biological target: T2, IKK-beta (Homo sapiens, UniProt O14920); conditions: competition binding, % of control; read-out: Percent Control (100 uM Levosimendan)
T2 construct: gene IKBKB
Summary of the method: as §1

ERBB2 = ERBB2 (Homo sapiens, UniProt P04626); conditions: competition binding, % of control; read-out: Percent Control (100 uM Levosimendan)
Summary of the method: as §1

ERK4 = biological target: T3, ERK4 (Homo sapiens, UniProt P31152); conditions: competition binding, % of control; read-out: Percent Control (100 uM Levosimendan)
T3 construct: gene MAPK4
Summary of the method: as §1

HIPK2 = HIPK2 (Homo sapiens, UniProt Q9H2X6); conditions: competition binding, % of control; read-out: Percent Control (100 uM Levosimendan)
Summary of the method: as §1

GRK3 = GRK3 (Homo sapiens, UniProt P35626); conditions: competition binding, % of control; read-out: Percent Control (100 uM Levosimendan)
Summary of the method: as §1

DRAK1 = biological target: T4, DRAK1 (Homo sapiens, UniProt Q9UEE5); conditions: competition binding, % of control
T4 construct: gene STK17A
T4 sequence (Q9UEE5 whole entry): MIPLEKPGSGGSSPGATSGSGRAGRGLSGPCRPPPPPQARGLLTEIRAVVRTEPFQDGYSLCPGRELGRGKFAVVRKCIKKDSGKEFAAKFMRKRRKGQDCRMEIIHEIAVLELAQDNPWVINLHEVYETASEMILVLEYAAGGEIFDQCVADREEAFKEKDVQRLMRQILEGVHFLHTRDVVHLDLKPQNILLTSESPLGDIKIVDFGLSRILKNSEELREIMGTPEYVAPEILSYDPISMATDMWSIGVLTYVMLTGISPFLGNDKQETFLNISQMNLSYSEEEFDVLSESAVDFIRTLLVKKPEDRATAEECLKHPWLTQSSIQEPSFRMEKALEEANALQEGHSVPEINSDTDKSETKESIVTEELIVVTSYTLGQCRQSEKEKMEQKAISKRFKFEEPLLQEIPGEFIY
Summary of the method: as §1

ACVR2B = ACVR2B (Homo sapiens, UniProt Q13705); conditions: competition binding, % of control; read-out: Percent Control (100 uM Levosimendan)
Summary of the method: as §1

CDK4-cyclinD1 = biological target: T5, CDK4-cyclinD1 (Homo sapiens, UniProt P11802); conditions: competition binding, % of control; read-out: Percent Control (100 uM Levosimendan)
T5 construct: cyclinD1
Summary of the method: as §1

[1] = read-out: Percent Control (10 uM Levosimendan)
[2] = read-out: Percent Control (100 uM Levosimendan)

remaining binding at 100 µM (LTK): 96% | remaining binding at 100 µM (EGFR(L861Q)): 71% | remaining binding at 100 µM (MARK1): 85% | remaining binding at 100 µM (MARK4): 87% | remaining binding at 100 µM (CSF1R-autoinhibited): 85% | remaining binding at 100 µM (ERBB4): 63% | remaining binding at 100 µM (TAK1): 78% | remaining binding at 100 µM (INSRR): 96% | remaining binding at 10 µM (PIM2; [1]): 84% | remaining binding at 100 µM (PIM2; [2]): 20% | remaining binding at 100 µM (TNNI3K): 95% | remaining binding at 100 µM (TAOK1): 100% | remaining binding at 100 µM (IKK-beta): 74% | remaining binding at 100 µM (ERBB2): 100% | remaining binding at 100 µM (ERK4): 100% | remaining binding at 100 µM (HIPK2): 69% | remaining binding at 100 µM (GRK3): 100% | remaining binding at 10 µM (DRAK1; [1]): 87% | remaining binding at 100 µM (DRAK1; [2]): 22% | remaining binding at 100 µM (ACVR2B): 100% | remaining binding at 100 µM (CDK4-cyclinD1): 84%
SMILES: C[C@@H]1CC(=O)NN=C1c1ccc(NN=C(C#N)C#N)cc1 [levosimendan]
